This is an account of results in patent US20110207166A1, “Human bone marrow microenvironments and uses thereof” (priority 2009, published 2011).

Entries after “also recorded” stand apart in the source; their conditions may differ.

Experiment [1] deals with MSC niche. Briefly: In vitro mesenchymal stem cell niche (cobblestone area) formation, phase contrast imaging. The note with it: SDF-1/CXCL12 10 ng/ml, AMD3100 10 μM. The class given is cell-based, human. How it is done: Fresh human BM samples were obtained from orthopedic surgery after informed consent (Tissue Donor Program of the Feinstein Institute). The buffy coat containing the mononucleated cells (MNC) was isolated by Ficoll-density gradient separation (Stem Cell Technology, Vancouver). MNC were plated at low density in 6-well plates in Alpha-Mem (Lonza), 20% heat-inactivated fetal bovine serum (Hyclone), 5 mM L-Glutamine and 100 Units/ml Peni/Strep (Stem Cell Technologies) for overnight adherence. After 24-48 hours, the non-adherent cell fraction was discharged by rigorous pipetting. At day 5, single-cell derived mesenchymal colonies were processed for immunohistochemistry (Vectastain ABC kit, Vector Laboratories, Burlingame, Calif.). MSC were stained for CD90/Thy-1 (Mouse anti-human mAb, Clone 5E10, BD Pharmingen), CD105 (Mouse anti-human mAb, clone 266, BD Pharmingen), CD146 (Mouse monoclonal [P1H12] Abcam). Cells were also labeled for flow cytometry with CD34-APC (Miltenyi Biotec), CD105-FITC (R&D), CD45-FITC, CD90-PECy5, CD146-PE and CXCR4-PE (BD Pharmingen) including matching isotype controls.
Polyurethane scaffold test discs (10×1.5 mm—Biomerix) were placed inside a cloning cylinder (Millipore Corporation, MA), one cylinder in each well of a 24-well plate (Falcon, BD). […]

The test system of experiment [2] is AML cells in MSC-coated scaffolds. In words: In vivo mesenchymal leukemic niche in MSC-coated scaffolds implanted subcutaneously in NOD/SCID mice, CD45 immunohistochemistry. As to conditions: 4 weeks; in situ injection twice per week; SDF-1/CXCL12 10 ng/ml; AMD3100 10 μM; human CD45 stain. The protocol: Polyurethane scaffolds (10×1.5 mm—Biomerix), coated in vitro with human BM-derived MSC (day 5-7), were implanted in a subcutaneous pocket on the dorsum of non-irradiated NOD/SCID mice (Jackson laboratory) according to an approved IACUC animal protocol. Empty scaffolds (without MSC seeding) were used as negative controls. CD34+ HSC (1×10^5—Stem Cell Technology, Vancouver) or primary AML cells (1×10^7—cryopreserved and thawed) were injected either in situ or retro-orbital in the mice and analyzed for engraftment. The mice were treated twice per week with in situ injections of SDF-1/CXCL12 (10 ng/ml), AMD3100 (10 μM) or PBS (control). At week 1, week 4 and week 8, mice were sacrificed and the scaffolds, femurs and spleens were processed and evaluated for cell survival in the mesenchymal niche by immunohistochemistry.
Harvested scaffolds were fixed in formalin solution 10%, neutral buffered (HistoPak-StatLab Medical Products-TX) and paraffin embedded and cut on slides. […]
Each experiment was performed in duplicate, with two mice per experiment in each treatment arm and one mouse as a negative control. Multiple slides per scaffold were analyzed for imaging by immunohistochemistry and light microscopy. […]

In experiment [3] the target is CXCR4 (Homo sapiens, UniProt P61073). As to conditions: AML; reference [42]; cited from earlier work.
CXCR4, sequence (P61073 whole entry): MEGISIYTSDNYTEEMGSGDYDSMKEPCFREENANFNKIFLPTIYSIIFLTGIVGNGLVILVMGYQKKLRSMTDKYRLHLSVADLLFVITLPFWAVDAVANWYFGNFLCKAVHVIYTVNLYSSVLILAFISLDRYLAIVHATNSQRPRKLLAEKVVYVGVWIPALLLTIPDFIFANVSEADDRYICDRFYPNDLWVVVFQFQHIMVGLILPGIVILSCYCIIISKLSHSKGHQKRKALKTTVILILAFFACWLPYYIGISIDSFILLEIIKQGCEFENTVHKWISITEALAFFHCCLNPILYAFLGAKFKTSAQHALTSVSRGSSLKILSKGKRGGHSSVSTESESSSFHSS

As for `c1cc(CN2CCCNCCNCCCNCC2)ccc1CN1CCCNCCNCCCNCC1` [AMD3100], the “cobblestone area formation / migration of hematopoietic progenitors underneath the MSC” value in experiment [1] is “MSC remain empty and hematopoietic progenitors do not migrate underneath the MSC; also recorded: the cytoplasm remained empty”. The “MSC stromal layer and adherence of AML cells in MSC-coated scaffold” value in experiment [2] was “the stromal lining is thin and disrupted at several points, leaving AML cells free floating in proximity; also recorded: interact with AML homing by stem cell niche disruption at the level of the stromal layer; also recorded: thin stromal lining that was disrupted at several points, leaving AML cells free floating in proximity; also recorded: the MSC stroma became ruffled and non-adherent and AML remained only loosely attached”.

As to `c1ccc(CNCc2ccc(CN3CCCNCCNCCCNCC3)cc2)nc1` [AMD3465], the “effect on chemoprotective effects of the stromal cell-leukemia interaction” value in experiment [3] is on record as “prevent the chemoprotective effects of the stromal cell-leukemia interaction”.

Consider “SDF-1/CXCL12: chemokine stromal-cell derived factor, ligand of CXCR4 (R&D Systems)”, for which the “cobblestone area formation / migration of hematopoietic progenitors underneath the MSC” value in experiment [1] is recorded as “cobblestone area formation”. The “MSC stromal layer and adherence of AML cells in MSC-coated scaffold” value in experiment [2] is on record as “thick proliferation of the MSC stromal layer with multiple adherent AML cells present; also recorded: upregulates adhesion of AML cells to the stroma; also recorded: induces hyperproliferation of the mesenchymal stroma compartment”.
